≈ marks a conversion by molar mass, not a printed value.
settings: buffer; pH 7.4; 200.0 µM

Structure (SMILES)	solubility kinetic [µg/mL]
CC(=O)Nc1cccc(C(=O)OCC(=O)NC(=O)c2ccccc2)c1	3.5 (≈ 10.3 µM)
Cc1ccc(CN2CCN(Cc3ccc(OC(C)C)cc3)CC2CCO)o1 (centres undefined)	41.2 (≈ 111 µM)
COC(=O)c1cn(CC(=O)Nc2ccc(F)cc2)c2ccccc12	< 0.3
Cc1[nH]c(C)c(C(=O)/C=C/c2ccc([N+](=O)[O-])cc2)c1C	2.9 (≈ 10.2 µM)
CC(C)NS(=O)(=O)c1ccc(NC(=O)Cc2ccsc2)cc1	> 50.8
COc1ccc(Cl)cc1NC(=O)Nc1ccccc1SC	< 0.3
Cc1cc(Cc2cc(C)c(N)cc2C)c(C)cc1N	> 38.2
Cc1ccc(OCCCN2CCOCC2)cc1	26.7 (≈ 113 µM)
O=C(Nc1cccc([N+](=O)[O-])c1)N1CCCc2ccccc21	34.6 (≈ 116 µM)
CCN(CC)S(=O)(=O)c1ccc2oc(SCC(=O)NC3CC3)nc2c1	> 57.5
CC(c1ccccc1)N1C(=O)c2cccnc2C1=O (centres undefined)	32.6 (≈ 129 µM)
Cc1cnc(NC(=O)c2c(-c3ccccc3)noc2C)s1	39.8 (≈ 133 µM)
N#C/C(=C(/O)CCl)c1nc(-c2ccccc2)cs1	41.3 (≈ 149 µM)
Cc1ccc(-n2c3nc(=O)n(C)c(=O)c-3cc3ccccc32)cc1	12.3 (≈ 38.8 µM)
CC(C)=C1SC(N2CCN(c3ccc(C)c(Cl)c3)CC2)=NC1=O	1.9 (≈ 5.43 µM)
COc1cc(Cl)c(C)cc1NC(=O)COC(=O)C1CC1C (centres undefined)	29.9 (≈ 95.9 µM)
CCN(CC)C(=O)c1cccc2nc3ccccc3nc12	> 41.9
Cc1ccc(OCc2ccc([N+](=O)[O-])cc2)c([N+](=O)[O-])n1	1.1 (≈ 3.8 µM)
COCCSc1ccccc1C(=O)Nc1ccc(Cl)cc1	44.1 (≈ 137 µM)
CC(C)(C)OC(=O)N1CCC(CNC(=O)c2ccc(F)cc2)CC1	> 50.5
O=C(CC1CCCCC1)NCc1ccco1	> 33.2
CC1CCCN(c2c3c(nc4ccccc24)CCCC3)C1 (centres undefined)	0.6 (≈ 2.14 µM)

Structure (SMILES)	solubility kinetic [µg/mL]
COc1ccc(C(=O)NCC(=O)N/N=C/c2cccnc2)cc1	> 46.8
COc1ccccc1N1CCN(Cc2ccc(C(=O)O)cc2)CC1	42.2 (≈ 129 µM)
CCN(CC)C(=O)Oc1ccnc2cc(Cl)ccc12	> 41.8
Cc1cc(OCC(=O)OCC(=O)Nc2cc(S(=O)(=O)N3CCOCC3)ccc2Cl)ccc1Cl	16.2 (≈ 31.3 µM)
CN1CCN(S(=O)(=O)Cc2ccccc2Cl)CC1	> 43.3
CCCCCC1CCC(c2ccc(/C(N)=N/O)cc2)CC1 (centres undefined)	< 0.3
Cc1nc(N2CCCCC2)sc1C=O	> 31.5
O=C(CCC1CCCCC1)NCc1cccnc1	> 37
CCOc1ccc(NC(=O)NC2CCS(=O)(=O)C2)cc1 (centres undefined)	> 44.8
COc1ccccc1N1CCN(C(=S)Nc2ccc(F)cc2)CC1	4 (≈ 11.6 µM)
O=C(NCC(=O)N1CCOCC1)c1ccccc1	> 37.2
CC(C)(C)NC(=O)CN1C(=O)/C(=C/c2ccccc2)SC1=S	1.1 (≈ 3.29 µM)
Cc1cc(NC(=O)COC(=O)C2CSC3(C)CCC(=O)N23)ccc1Br (centres undefined)	> 64.1
CC(C)CN1CCN(CC#Cc2ccccc2)CC1CCO (centres undefined)	43.6 (≈ 145 µM)
CCCCOC(=O)CSc1nc2ccccc2o1	5.4 (≈ 20.4 µM)
COc1ccc(NC(=O)CS(=O)(=O)c2ccc(C)cc2)c(OC)c1	> 52.4
Nc1ccc([As](=O)(O)O)cc1	> 32.6
CCCCn1c(CCC(=O)O)nc2cc(S(=O)(=O)N3CCCC3)ccc21	> 56.9
Cl.c1ccc(-c2ccc(OCCN3CCOCC3)cc2)cc1	29.8
C=CCNC(=O)CSCc1ccc(Br)cc1	> 45
O=C(c1ccccc1SCc1ccccc1)N1CCOCC1	45.9 (≈ 146 µM)
C=CCOc1ccc2c(c1)c(=O)cc(C(=O)O)n2CC	39.7 (≈ 145 µM)

From PubChem BioAssay AID1996
